IC50 data for 15 compounds are collected here from ChEMBL document CHEMBL1157980, “Guaianolides as immunomodulators. Synthesis and biological activities of dehydrocostus lactone, mokko lactone, eremanthin, and their derivatives” (J Nat Prod, 1999).

For one assay, the system named is A549. As to the kind of experiment: Inhibition of IL-1-beta-induced ICAM1 expression in human A549 cells. Format: functional, cell-based.
The nature of assay [1]: Inhibition of killing activity of CD8+ specific mouse CTL-OE4 cells. Format: functional, cell-based.

A word on the IC50: it is the concentration at which inhibition is half-maximal.

Consider `C=C1CC[C@@]23O[C@]2(C)CC[C@H]2C(=C)C(=O)O[C@@H]2[C@@H]13`, for which the IC50 (with A549; in assay [1]) was 7 µM each time.

Take `C=C1CC[C@H]2C(C)=CCC3=C(C)C(=O)O[C@@H]3[C@@H]12`: the IC50 in the assay on A549 was 142 µM; in assay [1] it was > 100 µM.

As to `C=C1CC[C@@]23O[C@]2(C)CC[C@@H]2[C@H](OC(=O)[C@H]2C)[C@@H]13`, the IC50 in the assay with A549 is 253 µM; in assay [1] it was > 1000 µM.

For the compound `C=C1CC[C@]23O[C@@]2(C)CCC2=C(C)C(=O)O[C@@H]2[C@@H]13`, the IC50 in the assay with A549 is 136 µM; in assay [1], > 1000 µM.

As for `C=C1CC[C@@H]2[C@H]1[C@H]1OC(=O)C(=C)[C@@H]1C[C@H]1O[C@@]21C`, the half-maximal inhibitory concentration (IC50) with A549 is 6 µM; in assay [1], 8 µM.

`C=C1CC[C@@H]2[C@H](OC(=O)[C@H]2C)[C@H]2C(C)=CC[C@@H]12`: the IC50 in assay [1] was > 100 µM.

As for `C=C1CC[C@]23O[C@@]2(C)CC[C@H]2C(=C)C(=O)O[C@@H]2[C@@H]13`, the IC50 was 10 µM with A549 and 7 µM in assay [1].

On to `C=C1CC[C@H]2C(=C)CCC3=C(C)C(=O)O[C@@H]3[C@@H]12`, for which the IC50 with A549 was found to be 442 µM; in assay [1], 50 µM.

Turning to `C=C1CC[C@]23O[C@@]2(C)CC[C@@H]2[C@H](OC(=O)[C@H]2C)[C@@H]13`, the IC50 is 504 µM in the assay with A549 and 597 µM in assay [1].

For the compound `C=C1CC[C@@H]2[C@H]1[C@H]1OC(=O)[C@@H](C)[C@@H]1C[C@H]1O[C@@]21C`, the IC50 with A549 was determined as 117 µM; in assay [1] it was 422 µM.

Take `C=C1CCC2=C(C)CC[C@H]3C(=C)C(=O)O[C@@H]3[C@@H]12`: the IC50 turned out to be 8 µM in the assay on A549 and 15 µM in assay [1].

With `C=C1CC[C@H]2C(=C)CC[C@H]3C(=C)C(=O)O[C@@H]3[C@@H]12` [DEHYDROCOSTUSLACTONE], the results for the IC50 (in the assay on A549; in assay [1]) were 10 µM and 14 µM, respectively.

With `C=C1CC[C@H]2C(C)=CC[C@H]3C(=C)C(=O)O[C@@H]3[C@@H]12` [EREMANTHIN], the IC50 with A549 amounted to 46 µM; in assay [1], 11 µM.

On to `C=C1C(=O)O[C@@H]2[C@H]3C(C)=CC[C@H]3C(=C)CC[C@@H]12` [ISODEHYDROCOSTUS LACTONE], for which inhibition in assay [1] was half-maximal at 16 µM (IC50).

Take `C=C1CC[C@H]2C(=C)CC[C@@H]3[C@H](OC(=O)[C@H]3C)[C@@H]12` [MOKKO LACTONE]: the IC50 is 251 µM in the assay on A549 and > 1000 µM in assay [1].
